Molecules are shown by their SMILES. Several values for one entry are separate records, joined by “and”; a condition that tells them apart may be missing. Equal entries are not always repeated. Toxic doses and inconclusive results are not listed.

The test system of the test is BDF1 mice, P388 leukemia ip, median survival T/C. In words: NCI In Vivo Anticancer Drug Screen. Data for tumor model P388 Leukemia (intraperitoneal) in B6D2F1 (BDF1) mice. The settings on record: endpoint: median survival time, higher = longer survival. In outline:
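Steps: implant the tumour, treat one group with compound and another with vehicle, record survival, then divide treated by control.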

The mark [1] stands for this setting: dose: 50.0 mg/kg/injection, schedule: Q01DX009 (ip), vehicle: saline with Tween-80.
[2] abbreviates: dose: 100.0 mg/kg/injection, schedule: Q01DX009 (ip), vehicle: saline with Tween-80.
The mark [3] stands for this setting: dose: 200.0 mg/kg/injection, schedule: Q01DX009 (ip), vehicle: saline with Tween-80.
Where [4] appears, read: dose: 100.0 mg/kg/injection, schedule: Q01DX009 (ip), vehicle: saline.
The mark [5] stands for this setting: dose: 100.0 mg/kg/injection, schedule: Q04DX003 (ip), vehicle: saline.
The mark [6] stands for this setting: dose: 200.0 mg/kg/injection, schedule: Q04DX003 (ip), vehicle: saline.
[7] abbreviates: dose: 400.0 mg/kg/injection, schedule: Q04DX003 (ip), vehicle: saline.
Where [8] appears, read: dose: 100.0 mg/kg/injection, schedule: Q01DX009 (ip), vehicle: Klucel (hydroxypropylcellulose) (HPC).
The mark [9] stands for this setting: dose: 100.0 mg/kg/injection, schedule: Q04DX003 (ip), vehicle: Klucel (hydroxypropylcellulose) (HPC).
[10] abbreviates: dose: 12.5 mg/kg/injection, schedule: Q01DX009 (ip), vehicle: other.
The mark [11] stands for this setting: dose: 25.0 mg/kg/injection, schedule: Q01DX009 (ip), vehicle: other.
The mark [12] stands for this setting: dose: 50.0 mg/kg/injection, schedule: Q01DX009 (ip), vehicle: other.
Where [13] appears, read: dose: 50.0 mg/kg/injection, schedule: Q01DX009 (ip), vehicle: saline.
Where [14] appears, read: dose: 200.0 mg/kg/injection, schedule: Q01DX009 (ip), vehicle: saline.
[15] abbreviates: dose: 12.5 mg/kg/injection, schedule: Q04DX003 (ip), vehicle: saline.
Where [16] appears, read: dose: 25.0 mg/kg/injection, schedule: Q01DX009 (ip), vehicle: saline.
Where [17] appears, read: dose: 25.0 mg/kg/injection, schedule: Q04DX003 (ip), vehicle: saline.

In the case of `COC(=O)C(N)CSCSCc1ccccc1` (stereo not given), the T/C was 109 % of control (dose: 6.25 mg/kg/injection, schedule: Q04DX003 (ip), vehicle: water); 113 % of control (dose: 12.5 mg/kg/injection, schedule: Q04DX003 (ip), vehicle: water); 104 % of control (dose: 25.0 mg/kg/injection, schedule: Q04DX003 (ip), vehicle: water); 100 % of control (dose: 50.0 mg/kg/injection, schedule: Q04DX003 (ip), vehicle: water); 100 % of control (dose: 100.0 mg/kg/injection, schedule: Q04DX003 (ip), vehicle: water).
As to `C1=Cc2c3c(c4c(c2C1)C=CC4)C=CC3`, the T/C is, setting by setting: under setting [1], 91 % of control; under setting [2], 93 % of control; under setting [3], 95 % of control.
As to `Oc1ccc(N=Cc2ccccc2O)cc1`, the T/C was 108 % of control under setting [4], 105 % of control under setting [5], 100 % of control under setting [6] and 110 % of control under setting [7].
Turning to `CCCCN(CCCC)CCCNC(=O)OCC`, the T/C is 100 % of control (dose: 25.0 mg/kg/injection, schedule: Q01DX009 (ip), vehicle: Klucel (hydroxypropylcellulose) (HPC)); 100 % of control (dose: 25.0 mg/kg/injection, schedule: Q04DX003 (ip), vehicle: Klucel (hydroxypropylcellulose) (HPC)); 110 % of control (dose: 50.0 mg/kg/injection, schedule: Q01DX009 (ip), vehicle: Klucel (hydroxypropylcellulose) (HPC)); 104 % of control (dose: 50.0 mg/kg/injection, schedule: Q04DX003 (ip), vehicle: Klucel (hydroxypropylcellulose) (HPC)); 115 % of control under setting [8]; 109 % of control under setting [9].
Regarding `CC(=O)OC1CC2(O)C(CCC3(C)C(c4ccc(=O)oc4)CCC32O)C2(C)C1=CC(O)C1OC12` (stereo not given), the T/C is, setting by setting: (dose: 0.05 mg/kg/injection, schedule: Q01DX010 (ip), vehicle: carboxymethylcellulose (CMC)) 105 % of control; (dose: 0.1 mg/kg/injection, schedule: Q01DX010 (ip), vehicle: carboxymethylcellulose (CMC)) 95 % of control; (dose: 0.2 mg/kg/injection, schedule: Q01DX010 (ip), vehicle: carboxymethylcellulose (CMC)) 105 % of control; (dose: 0.5 mg/kg/injection, schedule: Q01DX010 (ip), vehicle: carboxymethylcellulose (CMC)) 90 % of control.
With `CN1c2c(nc(N)[nH]c2=O)NCC1CCNc1ccc(C(=O)NC(CCC(=O)O)C(=O)O)cc1` (stereo not given), the T/C reads like this: (dose: 6.25 mg/kg/injection, schedule: Q01DX009 (ip), vehicle: other) 100 % of control; under setting [10], 100 % of control; under setting [11], 109 % of control; under setting [12], 109 % of control; under setting [13], 104 % of control; under setting [4], 112 % of control. Moreover, the T/C under setting [5] was 109 % of control; the T/C (dose: 200.0 mg/kg/injection, schedule: Q01DX009 (ip), vehicle: other) was 118 % of control; the T/C under setting [14] is 122 % of control; the T/C under setting [6] was 109 % of control; the T/C under setting [7] was 90 % of control.
For the compound `CNC(=O)C(C)C1C(=O)/C(=C(O)/C=C\C(C)=C\C(C)C2OC3(C)OC(C=CC34CO4)C2C)C(=O)N1C1CCC(O)C(C)O1` (stereo not given), the T/C is, setting by setting: under setting [2], 109 % of control; under setting [3], 100 % of control; (dose: 400.0 mg/kg/injection, schedule: Q01DX009 (ip), vehicle: saline with Tween-80) 109 % of control.
Turning to `CCCCCCCCCCCCCCCCS(=O)(=O)NN`, the T/C under setting [10] was 91 % of control, the T/C under setting [11] was 96 % of control and the T/C under setting [12] was 102 % of control.
In the case of `O=C1NC(=O)C(F)(F)C(O)N1` (stereo not given), the T/C (dose: 12.0 mg/kg/injection, schedule: Q01DX009 (ip), vehicle: saline) was 115 % of control; the T/C (dose: 65.0 mg/kg/injection, schedule: Q01DX009 (ip), vehicle: saline) is 154 % of control; the T/C under setting [4] is 154 % of control; the T/C (dose: 150.0 mg/kg/injection, schedule: Q01DX009 (ip), vehicle: saline) was 166 % of control; the T/C (dose: 220.0 mg/kg/injection, schedule: Q01DX009 (ip), vehicle: saline) is 179 % of control; the T/C (dose: 320.0 mg/kg/injection, schedule: Q01DX009 (ip), vehicle: saline) was 195 % of control.
As to `CCOC(=O)c1cnn(-c2ccccc2)c1N`, the T/C was 110 % of control (dose: 6.25 mg/kg/injection, schedule: Q04DX003 (ip), vehicle: saline); 102 % of control (dose: 12.5 mg/kg/injection, schedule: Q01DX009 (ip), vehicle: saline); 107 % of control under setting [15]; 96 % of control under setting [16]; 100 % of control under setting [17]; 243 % of control under setting [1]. The T/C reads like this: under setting [13], 96 % of control and 104 % of control; (dose: 50.0 mg/kg/injection, schedule: Q04DX003 (ip), vehicle: saline) 100 % of control; under setting [8], 104 % of control; under setting [2], 241 % of control; under setting [4], 104 % of control and 105 % of control; under setting [9], 95 % of control. In addition, the T/C is, setting by setting: under setting [5], 95 % of control; (dose: 200.0 mg/kg/injection, schedule: Q01DX009 (ip), vehicle: Klucel (hydroxypropylcellulose) (HPC)) 95 % of control; under setting [3], 91 % of control; under setting [14], 86 % of control; (dose: 200.0 mg/kg/injection, schedule: Q04DX003 (ip), vehicle: Klucel (hydroxypropylcellulose) (HPC)) 100 % of control; (dose: 400.0 mg/kg/injection, schedule: Q01DX009 (ip), vehicle: Klucel (hydroxypropylcellulose) (HPC)) 86 % of control. In addition, the T/C (dose: 400.0 mg/kg/injection, schedule: Q04DX003 (ip), vehicle: Klucel (hydroxypropylcellulose) (HPC)) was 87 % of control.
As for `Cc1[nH][nH]c(=O)c1N=O`, the T/C (dose: 18.75 mg/kg/injection, schedule: Q01DX009 (ip), vehicle: saline with Tween-80) was 92 % of control; the T/C (dose: 37.5 mg/kg/injection, schedule: Q01DX009 (ip), vehicle: saline with Tween-80) was 99 % of control; the T/C (dose: 75.0 mg/kg/injection, schedule: Q01DX009 (ip), vehicle: saline with Tween-80) is 99 % of control.
As for `CN(C)CCCN1c2ccccc2Sc2ccc(C(F)(F)F)cc21`, the T/C was 100 % of control (dose: 6.25 mg/kg/injection, schedule: Q01DX009 (ip), vehicle: saline); 108 % of control (dose: 6.25 mg/kg/injection, schedule: Q04DX003 (ip), vehicle: saline with Tween-80); 118 % of control (dose: 8.9 mg/kg/injection, schedule: Q01DX009 (ip), vehicle: saline); 110 % of control (dose: 9.37 mg/kg/injection, schedule: Q01DX009 (ip), vehicle: saline); 113 % of control (dose: 12.5 mg/kg/injection, schedule: Q04DX003 (ip), vehicle: saline with Tween-80); 108 % of control under setting [15]. Besides, the T/C reads like this: (dose: 13.4 mg/kg/injection, schedule: Q01DX009 (ip), vehicle: saline) 109 % of control; (dose: 16.5 mg/kg/injection, schedule: Q01DX009 (ip), vehicle: saline) 122 % of control; (dose: 20.0 mg/kg/injection, schedule: Q01DX009 (ip), vehicle: saline) 118 % of control; under setting [16], 100 % of control; (dose: 25.0 mg/kg/injection, schedule: Q04DX003 (ip), vehicle: saline with Tween-80) 113 % of control; under setting [17], 109 % of control. Further, the T/C was 100 % of control (dose: 37.5 mg/kg/injection, schedule: Q01DX009 (ip), vehicle: saline); 161 % of control (dose: 37.5 mg/kg/injection, schedule: Q04DX003 (ip), vehicle: saline); 95 % of control under setting [13].
Take `c1ccc(N2CCNCC2)cc1`: the T/C runs as follows: (dose: 6.25 mg/kg/injection, schedule: Q04DX003 (ip), vehicle: saline sonified) 95 % of control; (dose: 12.5 mg/kg/injection, schedule: Q04DX003 (ip), vehicle: saline sonified) 100 % of control; (dose: 25.0 mg/kg/injection, schedule: Q04DX003 (ip), vehicle: saline sonified) 104 % of control.

For the origin of these results see PubChem BioAssay AID328 (DTP/NCI, 2004).
